Usually IC50 stands for the point on the concentration scale where inhibition reaches its midpoint.

For one data set, the system named is HPAF-II cells. Briefly: Applicant's previous cancer cell proliferation inhibition test. In kind it is cell-based. The note with it: Homo sapiens, single drug, applicant's previous test data.
Data set [1] deals with PDX and CDX models with high expression of AKR1C3 enzyme. Conditions: WO2023/046060, Examples 1-9; cited from earlier work.
A further data set deals with H460 P53 KO #7. The data set can be described thus: In vitro proliferation under normoxia (CTG, 72 hours), Example 26. The note with it: Table 21. The class given is cell-based, human. The protocol:
(§1) • 1) H460 cell suspension was added to a 96-well plate (100 µL per well), with a cell density of 2000 cells/well. • 2) The cells were cultured overnight in a 37°C, 5% CO2 incubator. • 3) Compound Treatment
(§2) Monotherapy: 24 hours after cell plating, each well was supplemented with 99.5 µL of growth medium. Then, 0.5 µL of test compounds at different concentrations was added. The plate was gently shaken to ensure even mixing, and then placed in a 37°C, 5% CO2 incubator.
(§3) Combination therapy: 24 hours after cell plating, each well was supplemented with 99 µL of growth medium. Then, 0.5 µL of the combination compound Nutlin-3 was added. The plate was gently shaken to ensure even mixing, and then placed in an incubator for 2 hours. Then, 0.5 µL of test compounds at different concentrations was added. The plate was gently shaken to ensure even mixing, and then placed in a 37°C, 5% CO2 incubator. • 4) The cell plate was placed in the incubator for 72 hours. • 5) The cell plate to be tested was placed at room temperature and equilibrated for 30 minutes, and 100 µL of medium was discarded from each well. • 6) 25 µL of CTG reagent was added to each well, placed on a fast shaker to shake for 2 minutes, and placed at room temperature for 30 minutes (protected from light). • 7) The chemiluminescence signal value was read using a multifunctional microplate reader with a reading time of 1000 ms. • 8) IC50 values were calculated using Graph Pad Prism 5 software.
(§4) The p53 CRISPR/Cas9 KO plasmid (human) and p53 HDR plasmid (human) were purchased from Santa Cruz Company to construct H460 P53 KO cell lines, namely p53 knockout H460 cell lines. Three groups of H460 P53 KO cell lines were constructed and designated as H460 P53 KO # 1, H460 P53 KO # 7, and H460 P53 KO # 12.
(§5) The process for constructing p53 gene knockout cells is briefly described as follows: • H460 cells were plated in 6-well plates with 1 × 10^6 cells/well. • H460 cells were co-transfected with p53 CRISPR/Cas9 KO plasmid (h) (sc-416469) and p53 HDR plasmid (h) (sc-416469-HDR): 125 µL Opti-MEM + 1.25 µg each of the two plasmids + 5 µL P3000; 125 µL Opti-MEM + 15 µL liposome 3000 (increase volume, expected to increase transfection efficiency); they were co-incubated for 15 minutes, and then were added dropwise to the culture medium and mixed well.
(§6) After 48 h, 2 µg/mL puromycin was added for screening.
(§7) Two days later, the medium was replaced with fresh 1640 medium containing 1 µg/mL puromycin, and the medium was changed every two days.
(§8) When the cell colonies grew to a sufficient size, single colonies were picked and cultured.
(§9) When the cell number is sufficient, samples were collected for WB identification of the colonies. Colonies with no p53 expression were the p53 knockout H460 cell clones.
(§10) For the experimental procedures of this Example, please refer to the Experimental Procedure Overview in the section "Effects of compounds on in vitro H460 cell proliferation under normoxia" in Example 18.
(§11) Monotherapy: Compounds AST-3424/AST were separately administered in H460 and H460 P53 KO cell lines, respectively.
(§12) Combination therapy: Compounds AST-3424/AST were respectively used in combination with AST-3021, and respectively administeredin H460 and H460 P53 KO cell lines.
(§13) H460 P53 KO cell lines, i.e. H460 P53 KO # 1, H460 P53 KO # 7, H460 P53 KO # 12 cell lines, were used in experiments, respectively.

The next data set deals with H460 P53 KO #12. The data set is described as above. In kind it is cell-based, human. The note with it: Table 21. The protocol:
as §1, §2, §3, §4, §5, §6, §7, §8, §9, §10, §11, §12, §13

The next data set concerns H460 P53 KO #1. Described as above. The class given is cell-based, human. Conditions: Table 21. The protocol:
as §1, §2, §3, §4, §5, §6, §7, §8, §9, §10, §11, §12, §13

Data set [2] concerns cell lines and mouse tumor models of KRAS pathogenic mutations. Conditions: in vitro and in vivo pharmacodynamic experiments; data of WO2023046060A1; cited from earlier work.
For the next data set, the system named is NCI-H460 cells. The data set can be described thus: In vitro proliferation under normoxia conditions (CTG, 72 hours), Example 29. Conditions: Homo sapiens, Table 25, normoxia, alone or + 3 µM AST-3021. The class given is cell-based. The protocol: • 1) NCI-H460 and NCI-H460 P53KO # 1 cell suspensions were added to 96-well plate (100 µL per well), with a cell density of 2000 cells/well. • 2) The cells were cultured overnight in a 37°C, 5% CO2 incubator. • 3) Compound Treatment
as §2
as §3, with “combination compound was added.” for “combination compound Nutlin-3 was added.”, “hours. Then, 0.5µL of test” for “hours. Then, 0.5 µL of test”, “well, placed at a fast” for “well, placed on a fast”, “8) IC50 (half maximal inhibitory concentration) values were” for “8) IC50 values were”, “calculated using GraphPad Prism 5” for “calculated using Graph Pad Prism 5”

Structures are written as SMILES.

In the case of `C[C@H](OP(=O)(N1CC1)N1CC1)c1ccc([N+](=O)[O-])c(Oc2cccc(C(=O)N(C)C)c2)c1` [AST-3424], the IC50 with HPAF-II cells came out at 0.107 µM; in the data set with H460 P53 KO #7 (Homo sapiens, NCI-H460, H460 P53 KO # 7, AST-3424 alone or + 3 µM AST-3021), 0.0231 µM; with H460 P53 KO #12 (Homo sapiens, NCI-H460, H460 P53 KO # 12, AST-3424 alone or + 3 µM AST-3021) it was 0.00199 µM; in the data set with H460 P53 KO #1 (Homo sapiens, NCI-H460, H460 P53 KO # 1, AST-3424 alone or + 3 µM AST-3021), 0.0113 µM; in the data set on NCI-H460 cells, 0.00043 µM. Also, the anti-tumor effects result in data set [1] is listed as “significant anti-tumor effects”. In data set [1], the tolerability entry is “well tolerated”. The “Ratio (monotherapy), knockout/wild” value in the data set on H460 P53 KO #7 (IC50 in H460 P53 KO # 7 / H460 WT) is given as 100.43; with H460 P53 KO #12 (IC50 in H460 P53 KO # 12 / H460 WT) it was 8.65; with H460 P53 KO #1 (IC50 in H460 P53 KO # 1 / H460 WT), 49.13. Besides, in data set [2], the “sensitivity of cell lines and mouse tumor models of KRAS pathogenic mutations” value is listed as “more sensitive”.
